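Interpolation was linear, between the two tested concentrations surrounding the appropriate level; five concentrations were tested over 48 hours in 96-well plates. The concentration for full growth arrest is given as TGI.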
Assays:
Assay in all cases: inhibition of tumour cell growth, NCI panel, 48 h
[1] = test system: U251 CNS
[2] = test system: HS 578T breast
[3] = test system: SK-OV-3 ovarian
[4] = test system: ACHN renal
[5] = test system: KM12 colon
[6] = test system: SK-MEL-5 melanoma
[7] = test system: COLO 205 colon
[8] = test system: MOLT-4 leukemia
[9] = test system: UO-31 renal
[10] = test system: MDA-MB-435
[11] = test system: A549 NSCLC
[12] = test system: IGROV1 ovarian
[13] = test system: SK-MEL-2 melanoma
[14] = test system: HCT-15 colon
[15] = test system: SN12C renal
[16] = test system: NCI-H460 lung
[17] = test system: HCC-2998 colon
[18] = test system: BT-549 breast
[19] = test system: NCI-H522 lung
[20] = test system: HOP-92 NSCLC
[21] = test system: SF-295 CNS
[22] = test system: CCRF-CEM leukemia
[23] = test system: MDA-MB-231 breast
[24] = test system: HT29 colon
[25] = test system: SF-268 CNS
[26] = test system: SNB-19 CNS
[27] = test system: DU-145 prostate
[28] = test system: HCT-116 colon
[29] = test system: SW-620 colon
[30] = test system: OVCAR-3 ovarian
[31] = test system: RXF 393 renal
[32] = test system: CAKI-1 renal
[33] = test system: T-47D breast
[34] = test system: MALME-3M melanoma
[35] = test system: OVCAR-4 ovarian
[36] = test system: OVCAR-8 ovarian
[37] = test system: NCI-H23 lung
[38] = test system: NCI-H226 lung
[39] = test system: LOX IMVI melanoma
[40] = test system: UACC-257 melanoma
[41] = test system: 786-0 renal
[42] = test system: SF-539 CNS
[43] = test system: TK-10 renal
[44] = test system: MCF7 breast
[45] = test system: RPMI-8226 leukemia
[46] = test system: K-562 leukemia
[47] = test system: PC-3 prostate
[48] = test system: SR leukemia
[49] = test system: UACC-62 melanoma
[50] = test system: M14 melanoma
[51] = test system: EKVX NSCLC
[52] = test system: MDA-N
[53] = test system: OVCAR-5 ovarian
[54] = test system: A498 renal
[55] = test system: NCI/ADR-RES ovarian
[56] = test system: SK-MEL-28 melanoma
[57] = test system: HL-60(TB) leukemia
[58] = test system: HOP-62 NSCLC
[59] = test system: SNB-75 CNS
[60] = test system: DLD-1 colon
[61] = test system: M19-MEL melanoma
[62] = test system: KM20L2 colon
[63] = test system: SNB-78 CNS
[64] = test system: DMS 273 small cell lung
[65] = test system: DMS 114 small cell lung
[66] = test system: LXFL 529 NSCLC

## CC1=CC(=O)N(n2c(Cc3ccccc3)n[nH]c2=O)C1=O
[1]
  TGI: > 100 µM
[2]
  TGI: > 100 µM
[3]
  TGI: > 100 µM
[4]
  TGI: > 100 µM
[5]
  TGI: > 100 µM
[6]
  TGI: > 100 µM
[7]
  TGI: > 100 µM
[8]
  TGI: > 100 µM
[9]
  TGI: > 100 µM
[10]
  TGI: > 100 µM
[11]
  TGI: > 100 µM
[12]
  TGI: > 100 µM
[13]
  TGI: > 100 µM
[14]
  TGI: > 100 µM
[15]
  TGI: > 100 µM
[16]
  TGI: > 100 µM
[17]
  TGI: > 100 µM
[18]
  TGI: > 100 µM
[19]
  TGI: > 100 µM
[20]
  TGI: > 100 µM
[21]
  TGI: > 100 µM
[22]
  TGI: 62.7 µM
[23]
  TGI: > 100 µM
[24]
  TGI: > 100 µM
[25]
  TGI: > 100 µM
[26]
  TGI: > 100 µM
[27]
  TGI: > 100 µM
[28]
  TGI: > 100 µM
[29]
  TGI: > 100 µM
[30]
  TGI: > 100 µM
[31]
  TGI: > 100 µM
[32]
  TGI: > 100 µM
[33]
  TGI: > 100 µM
[34]
  TGI: > 100 µM
[35]
  TGI: > 100 µM
[36]
  TGI: > 100 µM
[37]
  TGI: > 100 µM
[38]
  TGI: > 100 µM
[39]
  TGI: > 100 µM
[40]
  TGI: > 100 µM
[41]
  TGI: > 100 µM
[42]
  TGI: > 100 µM
[43]
  TGI: > 100 µM
[44]
  TGI: > 100 µM
[45]
  TGI: > 100 µM
[46]
  TGI: > 100 µM
[47]
  TGI: > 100 µM
[48]
  TGI: > 100 µM
[49]
  TGI: > 100 µM
[50]
  TGI: > 100 µM
[51]
  TGI: > 100 µM
[52]
  TGI: > 100 µM
[53]
  TGI: > 100 µM
[54]
  TGI: > 100 µM
[55]
  TGI: > 100 µM

## c1ccc2c(c1)nc1n2CNC1
[1]
  TGI: > 100 µM
[2]
  TGI: > 100 µM
[56]
  TGI: > 100 µM
[3]
  TGI: > 100 µM
[4]
  TGI: > 100 µM
[5]
  TGI: > 100 µM
[6]
  TGI: > 100 µM
[7]
  TGI: > 100 µM
[8]
  TGI: > 100 µM
[9]
  TGI: > 100 µM
[10]
  TGI: > 100 µM
[11]
  TGI: > 100 µM
[57]
  TGI: > 100 µM
[12]
  TGI: > 100 µM
[13]
  TGI: > 100 µM
[14]
  TGI: > 100 µM
[15]
  TGI: > 100 µM
[16]
  TGI: > 100 µM
[58]
  TGI: > 100 µM
[17]
  TGI: > 100 µM
[18]
  TGI: > 100 µM
[20]
  TGI: > 100 µM
[21]
  TGI: > 100 µM
[22]
  TGI: > 100 µM
[23]
  TGI: > 100 µM
[24]
  TGI: > 100 µM
[25]
  TGI: > 100 µM
[26]
  TGI: > 100 µM
[27]
  TGI: > 100 µM
[28]
  TGI: > 100 µM
[29]
  TGI: > 100 µM
[30]
  TGI: > 100 µM
[31]
  TGI: > 100 µM
[32]
  TGI: > 100 µM
[33]
  TGI: > 100 µM
[59]
  TGI: > 100 µM
[35]
  TGI: > 100 µM
[37]
  TGI: > 100 µM
[39]
  TGI: > 100 µM
[40]
  TGI: > 100 µM
[41]
  TGI: > 100 µM
[42]
  TGI: > 100 µM
[43]
  TGI: > 100 µM
[44]
  TGI: > 100 µM
[45]
  TGI: > 100 µM
[46]
  TGI: > 100 µM
[47]
  TGI: > 100 µM
[48]
  TGI: > 100 µM
[49]
  TGI: > 100 µM
[50]
  TGI: > 100 µM
[51]
  TGI: > 100 µM
[52]
  TGI: > 100 µM
[53]
  TGI: > 100 µM
[54]
  TGI: > 100 µM
[55]
  TGI: > 100 µM

## N#CCC(=O)NC1C2CC3CC(C2)CC1C3 (stereo not given)
[1]
  TGI: 29.8 µM
[60]
  TGI: 48.9 µM
[56]
  TGI: 43.3 µM
[3]
  TGI: 78.6 µM
[4]
  TGI: 33.3 µM
[5]
  TGI: 32.5 µM
[6]
  TGI: 27.9 µM
[7]
  TGI: 34 µM
[8]
  TGI: > 100 µM
[9]
  TGI: > 100 µM
[11]
  TGI: > 100 µM
[57]
  TGI: 61.6 µM
[12]
  TGI: 59.1 µM
[13]
  TGI: 55.7 µM
[14]
  TGI: 35.9 µM
[61]
  TGI: > 100 µM
[15]
  TGI: 31.5 µM
[16]
  TGI: 32.3 µM
[58]
  TGI: 41.7 µM
[17]
  TGI: 31.9 µM
[19]
  TGI: 31 µM
[62]
  TGI: 33.6 µM
[20]
  TGI: 36.1 µM
[21]
  TGI: 32 µM
[22]
  TGI: > 100 µM
[24]
  TGI: 33.1 µM
[25]
  TGI: 35.7 µM
[63]
  TGI: 43 µM
[26]
  TGI: 32.5 µM
[28]
  TGI: 29.2 µM
[29]
  TGI: 51.7 µM
[30]
  TGI: 32 µM
[31]
  TGI: 30.2 µM
[32]
  TGI: 34.1 µM
[59]
  TGI: 33.5 µM
[34]
  TGI: 42.6 µM
[35]
  TGI: 50.5 µM
[36]
  TGI: 33.1 µM
[37]
  TGI: 32.6 µM
[38]
  TGI: 48.5 µM
[39]
  TGI: 23.8 µM
[40]
  TGI: 47.2 µM
[64]
  TGI: 48.2 µM
[41]
  TGI: 35.8 µM
[65]
  TGI: 30.5 µM
[42]
  TGI: 32.3 µM
[43]
  TGI: 46.2 µM
[45]
  TGI: > 100 µM
[46]
  TGI: > 100 µM
[49]
  TGI: 28.7 µM
[50]
  TGI: 41.6 µM
[51]
  TGI: 33.9 µM
[53]
  TGI: 36.9 µM
[54]
  TGI: 30.2 µM
[66]
  TGI: > 100 µM

From PubChem BioAssay (NCI)
